According to patent publication US20210107874A1, “PHARMACEUTICAL FORMULATION OF CROTONYLAMINOPYRIDINE SALT” (priority 2017, published 2021):
Structures can show the parent of a compound that is named as a salt.

What was measured:
[1] = Solubility of synthesized tartrate salt and free base of compound 4; format: physicochemical; conditions: synthesized tartrate salt; read-out: solubility (can be dissolved)
Experimental: The free base of compound 4 has a solubility of 0.8 mg/ml

Ostertagia ostertagi = experiment: In vivo efficacy in challenged calves, percent reduction of nematodes; conditions: subcutaneous injection
Experimental: (§1) Calves of 2-6 months of age were challenged with Ostertagia ostertagi (approx. 20,000 larvae L3/calf) on Day 0 and Cooperia oncophora (approx. 20,000 larvae L3/calf) on Day 1 by oral drench. At day 28, animals were treated by subcutaneous injection at a dose of 0.5 mg/kg (resp. 0.75, 1, 1.5 or 2.5 mg/kg) of a solution of compound 5. On days 35-37 animals were necropsied for extraction and counting of nematodes present. Efficacy was calculated as the percent reduction of nematodes compared to the control group. For calculation the geometric mean of the nematode numbers in treatment and control group was determined (7 animals in treatment group, 8 animals in control group). The solution A used for injection contained in 1 ml: compound 5 (100 mg), L-tartaric acid 52.6 mg, propylene glycol 400 mg, benzyl alcohol 20 mg, water for injection up to 1 ml. A control group was treated by injection of vehicle only. The solution B used for injection contained in 1 ml: (50 mg Compound 5; 24.74 mg L-tartaric acid, water for injection up to 1 ml).

Cooperia oncophora = experiment: as above; conditions: subcutaneous injection
Experimental: as §1

[2] = Solution A (with propylene glycol), 0.5 mg/kg bodyweight
[3] = Solution A (with propylene glycol), 1.5 mg/kg bodyweight
[4] = Solution A (with propylene glycol), 2.5 mg/kg bodyweight
[5] = Solution B (without propylene glycol), 0.75 mg/kg bodyweight
[6] = Solution B (without propylene glycol), 1 mg/kg bodyweight

## CCOc1cc(NCCNC(=O)/C=C/C(F)(F)F)ccn1 [tartrate salt of compound 4, tartrate salt of (E)-N-[2-[(2-ethoxy-4-pyridyl)amino]ethyl]-4,4,4-trifluoro-but-2-enamide]
[1]
  solubility: 145 mg/mL

## COc1cc(NCCNC(=O)/C=C/C(C)(F)F)ccn1 [tartrate salt of compound 5]
Ostertagia ostertagi; [2]
  reduction of O. ostertagi: 98.7%
Ostertagia ostertagi; [3]
  reduction of O. ostertagi: 100%
Ostertagia ostertagi; [4]
  reduction of O. ostertagi: 99.8%
Ostertagia ostertagi; Solution B (without propylene glycol), 0.5 mg/kg bodyweight
  reduction of O. ostertagi: 78.6%
Ostertagia ostertagi; [5]
  reduction of O. ostertagi: 99.8%
Ostertagia ostertagi; [6]
  reduction of O. ostertagi: 99.9%
Cooperia oncophora; [2]
  reduction of C. oncophora: 97.0%
Cooperia oncophora; [3]
  reduction of C. oncophora: 100%
Cooperia oncophora; [4]
  reduction of C. oncophora: 100%
Cooperia oncophora; [5]
  reduction of C. oncophora: 94.0%
Cooperia oncophora; [6]
  reduction of C. oncophora: 96.8%
